Here are results for 3 compounds from patent publication US20150284349A1 (priority 2013, published 2015).

One data set concerns HIF1a. The conditions noted are these: cited from earlier work.
A short description of data set [1]: Maximum tolerated dose study. The data set is classed as in vivo, male BALB/c mice. The following applies: for MTD at 14 days: male, BALB/c, mouse, in vivo. Here is the method: Three groups of three animals (male BALB/c mice) were administered increasing doses of compound 1 every other day for 14 days and the animals checked daily for the signs of moribundity, mortality, vocalization, and gross weight or body shape abnormalities. Dose escalation of compound 1 was performed according to the “modified Fibonacci search” scheme, compound 1 (x=2 mg/kg) was dosed at 4, 6.6, 10, 14, 24 and 32 mg/kg on Days 0, 2, 4, 6, 8 and 10. […] An average MTD of 21.1 mg/kg for the three groups combined was determined from this study.

Another data set is described as follows: Log D7.4 measurement. The data set is classed as physicochemical. The conditions noted are these: pH 7.4; standard experimental conditions. Here is the method: (§1) The Log D7.4 value of compound 1 was measured to be 2.69 under standard experimental conditions. Inhibition of multiple CYP was measured for compound 1 using standard CYP inhibition assays.
The nature of data set [2]: Intravenous pharmacokinetic study, observation for adverse symptoms. Type of data set: in vivo, male and female BALB/c mice. The conditions noted are these: intravenous 1.0 mg/kg b.w., observed up to 24 hours post dose. As to the method: Non-fasted animals (Male and Female BALB/c mice or SD rats, ten groups, three animals per group) were administered with compound 1 in vehicle (5% (v/v) N,N-Dimethylacetamide, 50% (v/v) of 60% (w/v) Hydroxypropyl beta-Cyclodextrin, 45% (v/v) Sterile water for injection) by intravenous route with various doses 0.5, 1, 2.5, and 5 mg/kg body weight at dose volume of 10 mL/kg body weight. Under mild isoflurane anesthesia, blood specimens were collected into pre-labeled tubes containing anticoagulant (K2EDTA—2 mg/mL blood) at various time points (0.08, 0.16, 0.25, 0.50, 1.00, 2.00, 4.00, 6.00, 8.00 and 24.00 hours). Collected blood specimens were centrifuged at 4000 rpm, 4° C. for 10 minutes and plasma was separated and stored at −80° C. until analysis.

A short description of data set [3]: Human microsome stability. The data set is classed as in vitro ADME.
A further data set concerns multiple CYP. As to the kind of experiment: Standard CYP inhibition assays. The conditions noted are these: each assay. Type of data set: in vitro ADME. As to the method: as §1
The next data set in a line: Plasma protein binding. The data set is classed as in vitro ADME.
Data set [4] is described as follows: Oral pharmacokinetic study, bioavailability. The conditions noted are these: rat, plasma, 5 mg/kg b.w., Male SD rats. Type of data set: in vivo. Here is the method: Fasted animals (Male and Female BALB/c mice or SD rats, ten groups, three animals per group) were administered with compound 1 in vehicle (5% (v/v) N,N-Dimethylacetamide, 50% (v/v) of 60% (w/v) Sulfobutyl ether beta-cyclodextrin (SBEβCD) and 45% (v/v) Sterile water for injection) by oral route with a dose of 2.5, 5, and 10 mg/kg body weight at dose volume of 10 mL/kg b.w. Under mild isoflurane anesthesia, blood specimen were collected into pre-labeled tubes containing anticoagulant (K2EDTA—2 mg/mL blood) at various time points (0.08, 0.16, 0.25, 0.50, 1.00, 2.00, 4.00, 6.00, 8.00 and 24.00 hours). Collected blood specimens were centrifuged at 4000 rpm, 4° C. for 10 minutes and plasma was separated and stored at −80° C. until analysis.

Data set [5] relates to 786-O xenografts (renal cell carcinoma). As to the kind of experiment: Mouse xenograft study, 786-O renal cell carcinoma. The data set is classed as in vivo, mice. Here is the method: Mouse xenograft study was conducted to evaluate the primary endpoint of efficacy (reduction in tumor volume of >50% as compared to control) and the secondary endpoint of survival (Kaplan-Meier). Tumors were established in the flank region and grown to about 100 mm^3 The mice were treated with compound 1 in the 786-O xenografts (renal cell carcinoma) at 1 mg/kg given IV. The compound was injected every fourth day for 45 days (a total of 11 injections, see following table).
All tumors were imaged at the end of the study and harvested for histopathology studies. Percentages of tumor volumes in control and compound 1—treated mice measured throughout the entire duration of the experiments. Error bars are ±SEM of each experimental group.
After the last treatment with compound 1, mice were injected with the tumor-targeting near-infrared (NIR) contrast agent IR-783, anesthetized and imaged on a Xenogen IVIS 200 small animal imager. The fluorescence output was processed with Living Image software with one representative sample for each group presented above.

A further data set concerns the target HIF/p300 complex (Homo sapiens, UniProt Q09472). The conditions noted are these: cited from earlier work.

Molecules are shown by their SMILES. Like-named read-outs stand apart in the source and are kept apart here. Where only a bound is given, the exact number is not on record here.

Chain of HIF/p300 complex (Q09472 whole entry, one chain of several): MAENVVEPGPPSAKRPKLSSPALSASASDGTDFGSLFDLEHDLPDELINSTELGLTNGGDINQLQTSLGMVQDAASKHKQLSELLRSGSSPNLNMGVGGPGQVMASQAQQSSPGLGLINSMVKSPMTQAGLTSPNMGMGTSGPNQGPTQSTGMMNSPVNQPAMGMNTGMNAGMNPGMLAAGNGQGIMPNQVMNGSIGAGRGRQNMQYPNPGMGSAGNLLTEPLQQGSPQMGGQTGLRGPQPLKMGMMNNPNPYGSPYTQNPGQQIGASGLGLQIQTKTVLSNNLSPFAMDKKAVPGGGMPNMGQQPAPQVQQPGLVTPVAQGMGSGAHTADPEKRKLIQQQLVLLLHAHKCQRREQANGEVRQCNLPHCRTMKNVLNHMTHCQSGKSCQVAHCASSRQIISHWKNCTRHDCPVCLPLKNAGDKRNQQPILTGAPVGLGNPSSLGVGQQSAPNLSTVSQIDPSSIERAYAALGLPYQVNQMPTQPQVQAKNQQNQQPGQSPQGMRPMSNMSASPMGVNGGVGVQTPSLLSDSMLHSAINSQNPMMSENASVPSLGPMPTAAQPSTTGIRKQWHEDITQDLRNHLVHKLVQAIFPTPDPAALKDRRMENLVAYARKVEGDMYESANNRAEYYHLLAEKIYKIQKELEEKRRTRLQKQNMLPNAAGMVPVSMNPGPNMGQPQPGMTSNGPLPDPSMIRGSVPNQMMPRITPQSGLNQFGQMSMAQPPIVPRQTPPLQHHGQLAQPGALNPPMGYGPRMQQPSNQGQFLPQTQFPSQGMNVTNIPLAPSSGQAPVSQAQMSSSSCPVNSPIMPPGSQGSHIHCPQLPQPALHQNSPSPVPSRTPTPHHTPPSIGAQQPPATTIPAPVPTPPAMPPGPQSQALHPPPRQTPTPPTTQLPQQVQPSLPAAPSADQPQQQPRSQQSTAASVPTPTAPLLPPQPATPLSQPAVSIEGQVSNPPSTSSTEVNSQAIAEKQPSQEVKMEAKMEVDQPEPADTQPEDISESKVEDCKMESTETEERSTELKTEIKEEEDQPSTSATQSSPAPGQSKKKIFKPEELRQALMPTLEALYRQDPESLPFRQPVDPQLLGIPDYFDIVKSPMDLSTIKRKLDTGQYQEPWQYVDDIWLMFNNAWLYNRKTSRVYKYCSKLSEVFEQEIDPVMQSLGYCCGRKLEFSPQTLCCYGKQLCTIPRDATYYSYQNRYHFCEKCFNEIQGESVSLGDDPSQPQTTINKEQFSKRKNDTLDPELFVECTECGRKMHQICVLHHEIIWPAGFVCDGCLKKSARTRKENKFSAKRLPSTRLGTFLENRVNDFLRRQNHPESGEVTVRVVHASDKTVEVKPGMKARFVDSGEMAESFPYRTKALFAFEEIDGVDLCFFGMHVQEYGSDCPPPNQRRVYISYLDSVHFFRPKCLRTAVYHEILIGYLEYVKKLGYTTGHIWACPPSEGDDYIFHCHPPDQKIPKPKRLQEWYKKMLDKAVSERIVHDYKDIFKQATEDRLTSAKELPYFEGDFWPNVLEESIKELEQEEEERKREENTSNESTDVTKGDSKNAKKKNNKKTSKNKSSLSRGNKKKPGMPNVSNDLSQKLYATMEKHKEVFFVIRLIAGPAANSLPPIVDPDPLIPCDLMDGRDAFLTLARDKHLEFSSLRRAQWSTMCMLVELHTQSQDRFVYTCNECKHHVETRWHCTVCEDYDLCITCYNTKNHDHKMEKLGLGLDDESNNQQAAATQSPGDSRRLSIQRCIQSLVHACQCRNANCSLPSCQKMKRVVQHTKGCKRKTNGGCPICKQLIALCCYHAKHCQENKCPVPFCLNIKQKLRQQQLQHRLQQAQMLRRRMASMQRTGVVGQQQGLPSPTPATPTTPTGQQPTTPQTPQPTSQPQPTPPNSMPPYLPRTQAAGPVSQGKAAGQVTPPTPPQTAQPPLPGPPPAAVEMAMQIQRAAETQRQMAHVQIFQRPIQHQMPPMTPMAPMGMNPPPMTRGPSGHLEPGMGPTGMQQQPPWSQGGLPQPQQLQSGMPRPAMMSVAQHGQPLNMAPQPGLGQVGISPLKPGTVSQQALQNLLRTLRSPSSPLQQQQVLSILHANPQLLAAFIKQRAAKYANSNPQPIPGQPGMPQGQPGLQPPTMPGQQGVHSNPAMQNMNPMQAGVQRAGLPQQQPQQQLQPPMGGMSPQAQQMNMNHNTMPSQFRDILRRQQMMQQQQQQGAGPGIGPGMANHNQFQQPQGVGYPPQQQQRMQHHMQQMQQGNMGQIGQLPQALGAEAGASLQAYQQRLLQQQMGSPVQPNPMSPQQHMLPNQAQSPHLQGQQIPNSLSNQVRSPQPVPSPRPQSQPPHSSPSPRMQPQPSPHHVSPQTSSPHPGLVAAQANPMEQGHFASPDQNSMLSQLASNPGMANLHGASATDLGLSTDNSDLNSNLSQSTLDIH

With `COc1cc2c(cc1O)CC[C@@H]1[C@@H]2CC[C@]2(C)[C@@H](O)CC[C@@H]12` [2-methoxyestradiol], the “HIF1a levels in vitro” value with HIF1a is recorded as “reduce HIFIa levels”.
`CN1C(=O)[C@]2(Cc3ccc(CCc4ccc(C[C@@]56SS[C@@](CO)(C(=O)N5C)N(C)C6=O)cc4)cc3)SS[C@@]1(CO)C(=O)N2C` (racemic) [Compound 1, (±)-4,4′-((ethane-1,2-diylbis(4,1-phenylene))bis(methylene))bis(1-(hydroxymethyl)-5,7-dimethyl-2,3-dithia-5,7-diazabicyclo[2.2.2]octane-6,8-dione)]: the signs of toxicity entry was “no signs of toxicity” in data set [1] (14 mg/kg dose, male BALB/c mice) and “one animal exhibited signs of toxicity” in [1] (24 mg/kg dose, male BALB/c mice). Besides, the “animals affected per group of three (quantity not given)” value in data set [1] (Dose 4 mg/kg, Group 1) came out at 0; in data set [1] (Dose 4 mg/kg, Group 2) it was 0; in [1] (Dose 4 mg/kg, Group 3), 0; in data set [1] (Dose 6.6 mg/kg, Group 1) it was 0; in [1] (Dose 6.6 mg/kg, Group 2) it was 0; in [1] (Dose 6.6 mg/kg, Group 3), 0. The “animals affected per group of three (quantity not given)” value is given as 0 in data set [1] (Dose 10 mg/kg, Group 1); 0 in data set [1] (Dose 10 mg/kg, Group 2); 0 in data set [1] (Dose 10 mg/kg, Group 3); 0 in data set [1] (Dose 14 mg/kg, Group 1); 0 in data set [1] (Dose 14 mg/kg, Group 2); 0 in [1] (Dose 14 mg/kg, Group 3). For the same compound, the “animals affected per group of three (quantity not given)” value is reported as 0 in data set [1] (Dose 24 mg/kg, Group 1); 1 in data set [1] (Dose 24 mg/kg, Group 2); 1 in data set [1] (Dose 24 mg/kg, Group 3); 3 in data set [1] (Dose 32 mg/kg, Group 1); 3 in [1] (Dose 32 mg/kg, Group 2); 3 in data set [1] (Dose 32 mg/kg, Group 3). Further, the MTD at 14 days in [1] (Group 1, read-out: MTD) is 25.3 mg/kg; in data set [1] (Group 2, read-out: MTD) it was 19 mg/kg; in data set [1] (Group 3, read-out: MTD), 19 mg/kg; in [1] (three groups combined, male BALB/c mice, read-out: Average MTD), 21.1 mg/kg. Moreover, the logD in “Log D7.4 measurement” turned out to be 2.69. The “adverse symptoms after dosing” value in [2] is “found to be normal”. In data set [3], the “in vitro clearance, human microsome stability studies” value is recorded as “favorable in vitro clearance”. Also, the “human microsome stability T1/2” value in [3] (in the presence of co-factor) is reported as “short”. Besides, in the data set on multiple CYP, the IC50 was > 5 µM. Moreover, the plasma protein binding result in “Plasma protein binding” was “highly protein bound”. Moreover, the bioavailability in data set [4] was 28%. The “median tumor volume increase” value in data set [5] (786-O xenografts in mice, 46 day experiment, control group 288%, P<0.01) was 113%. Also, the “intensity of the NIR signal from tumor-accumulated contrast agent IR-783 compared to control group” value in data set [5] (after last treatment, Xenogen IVIS 200 imaging) is listed as “significantly lower intensity”. Also, the weight loss in [5] (during the 45 day experiment) is reported as 5-8%.
Take `CN1C(=O)[C@]2(Cc3cn([C@]45C[C@@]67SS[C@@](CO)(C(=O)N6[C@H]4Nc4ccccc45)N(C)C7=O)c4ccccc34)SS[C@@]1(CO)C(=O)N2C` [chetomin]: at HIF/p300 complex, the “inhibition of the HIF/p300 complex” value was “potent and specific inhibition”.
